From patent US11872225B2, “Pyruvate kinase modulators and use thereof” (Agios Pharmaceuticals, Inc., priority 2017, dated 2024)

The compounds below were run against wild type PKM2 (Homo sapiens, UniProt P14618) (assay: PKM2 Assay (LDH/NADH-coupled, absorbance at 340 nm)). Conditions: wild type PKM2 activation; 60 min preincubation at 25° C.; ADP 0.4 mM, PEP 0.11 mM; read-out: PKM2 WT AC50.
Type: biochemical
Description: A compound described herein may be tested for its ability to activate PKM2. For simplicity, the activation activity of these compounds is represented as an AC50 in Table 2. In Tables 2, a compound described herein may have an AC50 of wild type PKM2.
PKM2 enzyme stock solution was diluted to prepare a 1.11× Reaction Mix (without ADP). 1 μL of test compound was first added to the wells followed by 40 μL of 1.11× Reaction Mix (without ADP) and incubated at room temperature (25° C.) for 60 min. The reaction was initiated with 10 μL ADP (0.4 mM final concentration), bringing the final Reaction Mix to 1×, and the reaction progress was measured as changes in absorbance at 340 nm wavelength at room temperature.
Test compound preparation: Test compounds were prepared at 50× final concentration in DMSO. 1 to 3 dilutions were made for 11 points (for example 50 μL of 5000 μM compound was added to 100 μL 100% DMSO to yield a 1667 μM, 50 μL of this added to 100 μL DMSO to yield 556 μM, and so forth). The compounds were added to the assay as a 1 to 50 dilution (1 μL in 50 μL) to yield a top concentration of 100 μM, decreasing 3-fold for 11 points.
Reaction Mix: PKM2 (5 ng/well, 0.1 μg/ml), ADP (0.4 mM), PEP (0.11 mM), NADH (180 μM), LDH (0.005 U/μL, Sigma #L3888), 1 mM DTT, 0.03% BSA in 1× Reaction Buffer
Reaction Buffer: 100 mM KCl, 50 mM Tris pH 7.5, 5 mM MgCl2.

Sequence of wild type PKM2 (P14618 whole entry): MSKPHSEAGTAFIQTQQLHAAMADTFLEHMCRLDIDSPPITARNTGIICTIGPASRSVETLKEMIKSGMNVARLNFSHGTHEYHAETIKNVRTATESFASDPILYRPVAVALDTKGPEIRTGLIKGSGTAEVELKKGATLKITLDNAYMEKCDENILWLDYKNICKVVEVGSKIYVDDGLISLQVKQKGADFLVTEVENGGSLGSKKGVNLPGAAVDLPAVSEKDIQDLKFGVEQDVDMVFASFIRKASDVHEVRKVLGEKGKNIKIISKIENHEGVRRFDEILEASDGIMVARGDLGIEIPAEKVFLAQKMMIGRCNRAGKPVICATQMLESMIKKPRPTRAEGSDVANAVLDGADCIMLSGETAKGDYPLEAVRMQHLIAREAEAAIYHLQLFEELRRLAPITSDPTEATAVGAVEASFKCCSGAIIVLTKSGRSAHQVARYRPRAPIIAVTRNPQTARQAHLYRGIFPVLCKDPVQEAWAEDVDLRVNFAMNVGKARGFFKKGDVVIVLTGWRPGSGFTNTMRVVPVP

AC50	Structure (SMILES)
< 300 nM	Cn1c2nc(Cc3cc[nH]n3)sc2c2cnn(Cc3nccc(N)n3)c(=O)c21 [Compound 135]
< 300 nM	Cn1ccc(Cn2ncc3c4sc(C(=O)c5cc[nH]n5)nc4n(C)c3c2=O)n1 [Compound 122]
< 300 nM	Cn1c2nc(Cc3cc[nH]n3)sc2c2cnn(Cc3ccn[nH]3)c(=O)c21 [Compound 63]
< 300 nM	Cn1c2nc(Cc3c[nH]nn3)sc2c2cnn(Cc3cccc(N)n3)c(=O)c21 [Compound 104]
301 to 800 nM	CC(=O)Nc1ccc(F)c(Cn2ncc3c4sc(Cc5cnn(C)c5)nc4n(C)c3c2=O)n1 [Compound 127]
< 300 nM	Cn1c2nc(Cc3csc(CO)n3)sc2c2cnn(Cc3cc[nH]n3)c(=O)c21 [Compound 90]
< 300 nM	Cn1c2nc(Cn3ccnc3)sc2c2cnn(Cc3cccc4[nH]ncc34)c(=O)c21 [Compound 99]
301 to 800 nM	Cn1c2nc(Cn3cnnc3)sc2c2cnn(Cc3cccc4[nH]ncc34)c(=O)c21 [Compound 102]
< 300 nM	Cn1c2nc(Cc3cc[nH]n3)sc2c2cnn(Cc3ccc4scnc4c3)c(=O)c21 [Compound 88]
> 800 nM	Cn1c2nc(Cc3ccccn3)sc2c2cnn(CC3CCOCC3)c(=O)c21 [Compound 139]
301 to 800 nM	Cc1nc2c(s1)c1cnn(Cc3cccc([N+](=O)[O-])c3)c(=O)c1n2C [Compound 16]
> 800 nM	Cc1nc2c(s1)c1cnn(Cc3ccc(N)cc3)c(=O)c1n2C [Compound 18]
> 800 nM	Cn1c2nc([S+](C)[O-])sc2c2cnn(Cc3cnc(N)nc3)c(=O)c21 (stereo not drawn) [Compound 34]
< 300 nM	Cn1c2nc(Cc3cc[nH]n3)sc2c2cnn(Cc3c[nH]nn3)c(=O)c21 [Compound 89]
< 300 nM	COc1cccc(Cn2ncc3c4sc(C(=O)c5cccc(O)c5)nc4n(C)c3c2=O)c1 [Compound 21]
> 800 nM	Cn1c2nc(Cn3cncn3)sc2c2cnn(Cc3n[nH]c(=O)[nH]3)c(=O)c21 [Compound 145]
> 800 nM	Cc1nc2c(s1)c1cnn(Cc3ccc(CO)cc3)c(=O)c1n2C [Compound 14]

AC50	Structure (SMILES)
< 300 nM	Cn1c2nc(Cc3csc(CO)n3)sc2c2cnn(Cc3nccs3)c(=O)c21 [Compound 93]
> 800 nM	COCc1cn(C)nc1Cn1ncc2c3sc(Cc4cc[nH]n4)nc3n(C)c2c1=O [Compound 120]
< 300 nM	Cn1c2nc(Cc3cc[nH]n3)sc2c2cnn(Cc3[nH]ncc3Cl)c(=O)c21 [Compound 103]
> 800 nM	CCn1c2nc(Cc3cc[nH]n3)sc2c2cnn(Cc3ccccc3)c(=O)c21 [Compound 138]
> 800 nM	Cn1c2nc(Cn3ccnc3)sc2c2cnn(Cc3ccnc(N)n3)c(=O)c21 [Compound 144]
< 300 nM	Cn1c2nc(Cc3cc[nH]n3)sc2c2cnn(Cc3cccc(N)n3)c(=O)c21 [Compound 74]
< 300 nM	Cn1c2nc(Cc3cc[nH]c(=O)c3)sc2c2cnn(Cc3cccc4[nH]ncc34)c(=O)c21 [Compound 76]
< 300 nM	Cn1c2nc(Cc3cnoc3)sc2c2cnn(Cc3cccc4[nH]ncc34)c(=O)c21 [Compound 65]
< 300 nM	Cn1c2nc(Cc3cccc(N)n3)sc2c2cnn(Cc3cc[nH]n3)c(=O)c21 [Compound 101]
< 300 nM	Cn1c2nc(Cc3cc[nH]n3)sc2c2cnn(Cc3csc(N)n3)c(=O)c21 [Compound 75]
< 300 nM	Cn1c2nc(Cc3cc[nH]n3)sc2c2cnn(CCc3cccc(N)n3)c(=O)c21 [Compound 126]
< 300 nM	Cn1ccc(Cn2ncc3c4sc(Cc5cccc(N)n5)nc4n(C)c3c2=O)n1 [Compound 109]
> 800 nM	Cn1c2nc(Cc3ccc(C(N)=O)cc3)sc2c2cnn(Cc3cccc4[nH]ncc34)c(=O)c21 [Compound 42]
> 800 nM	Cn1c2nc(Cc3ccc(C#N)cc3)sc2c2cnn(Cc3cccc4[nH]ncc34)c(=O)c21 [Compound 33]
< 300 nM	Cn1c2nc(Cc3cc[nH]n3)sc2c2cnn(Cc3nc(N)ccc3F)c(=O)c21 [Compound 107]
> 800 nM	Cc1nc2c(s1)c1cnn(Cc3ccc([N+](=O)[O-])cc3)c(=O)c1n2C [Compound 17]
